Counter-ions that a name gives are not always drawn. Like-named read-outs stand apart in the source and are kept apart here.
Columns and labels:
[1] = Pharmacokinetics of Compound 141 in male Wistar rats, intravenous and oral; type: in vivo; details: for MRT last: read-out: MRT(0-t); for MRT inf: read-out: MRT(0-∞)
Method: For intravenous administration, blood samples were collected via retro-orbital puncture into heparinized tubes at pre-dose and 0.083, 0.25, 0.5, 1, 2, 6, 8, and 24 hours (hr) post-dose.
For oral administration, blood samples were collected at following time points: 0, 0.167, 0.417, 0.75, 1, 2, 4, 6, 8, and 24 hr. After sample collection, plasma samples were stored at −20° C. until bioanalysis. Concentrations of 72(+) and 72(−) in plasma samples were determined using a high performance liquid chromatography/mass spectrometry (HPLC/MS/MS) method.
*F(%)=(Doseiv×AUCoral(0-t))/(Doseoral×AUCiv(0-t))×100%. […]
The pharmacokinetic profile and bioavailability of Compound 141 (phosphate salt of Compound 127) in male Wistar rats following single intravenous (iv) and oral administration (p.o.) were measured according to the procedures of Example 4 and are summarized in Table 11. The pharmacokinetic profile of Compound 162 in male Golden Syrian masters following oral administration (pox) is summarized in Table 12.

[2] = tested on: LDLR mRNA expression in HepG2 cells; test: LDLR mRNA expression in HepG2 cells, quantitative real-time RT-PCR (Example 7); type: cell-based, human; details: dose less than or equal to 10 μM, 24 hours
Method: In yet another experiment, HepG2 cells were treated with various compounds for 24 hours at the indicated doses. Total RNA was isolated and 2 μg was used to generate cDNA in a reaction containing random primers and M-MLV at 37° C. for 1 hour in a volume of 25 μL. Real-time PCR was performed on the cDNA using MCEP REALPLEX 2 SYSTEM (Eppendorf) and Universal MasterMix (Applied Biosystems). Human LDLR and GAPDH Pre-Developed TaqMan Assay Reagents (Applied Biosystems) were used to assess the levels of mRNA expressions in HepG2. The levels of LDLR mRNA were normalized to that of GAPDH. Each RNA samples was assayed in triplicate. The abundance of LDLR mRNA in untreated cells was defined as 1, and the amounts of LDLR mRNA from compound-treated cells were plotted relative to that value in FIG. 2B. The data shown are mean±s.d.
Activities of some compounds of Formulas I, II and EE on LDLR mRNA expression were determined. HepG2 cells were treated with new compounds individually at a dose less than or equal to 10 μM for 24 hours. […] In these experiments, berberine chloride was included for comparison.

[3] = tested on: LDLR ligand uptake activity in HepG2 cells; test: DiI-LDL uptake in HepG2 cells (Example 6); type: cell-based, human; details: 20 hours, A, compound dose ≦10 μM; note: key: +: slightly increased fluorescent intensity over control; ++: modestly increased fluorescent intensity over control; +++: strongly increased fluorescent intensity over control
Method: HepG2 cells (2×10^5 cells/well) in 24-well culture plates were treated with various compounds at indicated concentrations for 20 hours. The fluorescent 1.1′-dioctadecyl-3,3,3′,3′-tetramethylindocarbocyanin perchlorate (DiI-LDL) (Biomedical Technologies, Stoughton, Mass.) at a concentration of 2 μg/mL was added to cells at the end of treatment. After 4 hours, the medium was removed, cells were washed with cold PBS, and were examined immediately under a fluorescent microscope (Nikon) at 200× amplification. The fluorescent intensity in compound-treated cells was compared to that in untreated control cells. […] In these experiments berberine chloride was used for comparison.

[4] = tested on: LDLR mRNA expression in HepG2 cells; test: LDLR mRNA expression in HepG2 cells, quantitative real-time RT-PCR (Example 12); type: cell-based, human; details: Homo sapiens, 24 hours; for fold induction at 10 µM: read-out: Activity on LDLR mRNA at 10 uM (fold of control); for fold induction at 40 µM: read-out: Activity on LDLR mRNA at 40 uM (fold of control)
Method: (§1) The effects of compounds on the mRNA expressions of LDLR and PCSK9 were examined using quantitative real-time RT-PCR assays. HepG2 cells were treated with various compounds at 10 and 40 uM concentrations for 24 hours. Total RNA was isolated and […] was used to generate cDNA in a reaction containing random primers and M-MLV at 37° C. for 1 h in a volume of 25 μL. Real-time PCR was performed on the cDNA using MCEP REALPLEX 2 SYSTEM (Eppendorf) and Universal MasterMix (Applied Biosystems). Human LDLR, PCSK9, and GAPDH Pre-Developed TaqMan Assay Reagents (Applied Biosystems) were used to assess the levels of mRNA expressions in HepG2. The levels of LDLR and PCSK9 mRNA were normalized to that of GAPDH. Each RNA samples was assayed in duplicate. The fold activity was calculated by dividing mRNA abundance in compound treated cells with that of control.

[5] = tested on: PCSK9 mRNA expression in HepG2 cells; test: PCSK9 mRNA expression in HepG2 cells, quantitative real-time RT-PCR (Example 12); type: cell-based, human; details: 24 hours
Method: as §1

[6] = tested on: LDL ligand uptake activity in HepG2 cells; test: DiI-LDL uptake in HepG2 cells (Example 12); type: cell-based, human
Method: The combined beneficial effects of these novel compounds on elevation of LDLR mRNA levels likely through the mechanism of mRNA stabilization and their inhibitory activity towards PCSK9, the secreted protease that degrades LDLR protein, result in strong increases in LDL ligand uptake activity through increased receptor surface abundance. […] Briefly, HepG2 cells (2×10^5 cells/well) in 24-well culture plates were treated with various compounds at 10 and 40 uM concentrations for 20 hours. The fluorescent 1.1′-dioctadecyl-3,3,3′,3′-tetramethylindocarbocyanin perchlorate (DiI-LDL) (Biomedical Technologies, Stoughton, Mass.) at a concentration of 2 μg/ml was added to cells at the end of treatment. After 4 hours, the medium was removed; cells were washed with cold PBS, and were examined immediately under a fluorescent microscope (Nikon) at 200× amplification. The fluorescent intensity in compound-treated cells was compared to that in untreated control cells. […]

[7] = Wistar, rat, plasma, male rats, IV (2 mg/kg), mean
[8] = Wistar, rat, plasma, male rats, PO (10 mg/kg), mean
[9] = 40 uM, 20 hours (second symbol of cell)
[10] = 10 uM, 20 hours (first symbol of cell)

SMILES	fold induction at 10 µM [4]	fold induction at 40 µM [4]	PCSK9 mRNA level at 10 uM (fold of control) [5]	Activity on PCSK9 mRNA reduction at 40 uM (fold of control) [5]	Activity in LDL uptake (relative to control) [6, 9]	Activity in LDL uptake (relative to control) [6, 10]	further results
COc1cc2c(cc1OC)C1Cc3ccc(OC)c(OS(=O)(=O)c4cccc(F)c4)c3CN1CC2 (racemic) [Compound 141, 2,3,10-Trimethoxy-5,6,7,8,13,13a-hexahydroisoquinolino[2,1-b]isoquinolin-9-yl 3-fluorobenzenesulfonate phosphate Salt]	–	–	–	–	–	–	AUC(0-inf) [1, 7]: 1080 ng·h/mL; AUC(0-t) [1, 7]: 1070 ng·h/mL; Cmax [1, 7]: 1550 ng/mL; Tmax [1, 7]: 0.083 h; MRT last [1, 7]: 1.46 h; MRT inf [1, 7]: 1.62 h; Vd ([1]; Wistar, rat, plasma, male rats, IV (2 mg/kg), mean, read-out: Vz): 8.31 L/kg; AUC(0-inf) [1, 8]: 3380 ng·h/mL; AUC(0-t) [1, 8]: 3360 ng·h/mL; Cmax [1, 8]: 826 ng/mL; Tmax [1, 8]: 0.33 h; MRT last [1, 8]: 4.25 h; MRT inf [1, 8]: 4.44 h; pharmacokinetic properties and bioavailability, in words ([1]; male Wistar rats, iv and p.o.): excellent pharmacokinetic properties and good bioavailability; CLz ([1]; male rats, IV (2 mg/kg), mean): 31.2 mL/min/kg; t1/2z ([1]; male rats, IV (2 mg/kg), mean): 3.16 h; F* ([1]; male rats, PO (10 mg/kg) vs IV (2 mg/kg), mean): 62.75%; t1/2z ([1]; male rats, PO (10 mg/kg), mean): 3.62 h
COc1ccc2c(c1OC)CN1CCc3cc4c(cc3C1C2Cc1ccccc1)OCO4 (stereo not drawn) [Compound 1, 9,10-dimethoxy-13-benzyl-5,6,7,8,13,13a-hexahydro-2H-1,3-dioxolano[4,5-g]isoquinolino[3,2-a]isoquinoline]	–	–	–	–	–	–	Activity on LDLR mRNA expression (Fold of control) [2]: 1.56 ± 0.86 Fold of control; Activity on DiI-LDL uptake [3]: +
COc1cc2c(cc1C(=O)O)C1Cc3ccc(OC)c(OS(=O)(=O)c4ccccc4)c3CN1CC2 (stereo not drawn) [Compound 135, 3,10-Dimethoxy-9-(phenylsulfonyloxy)-5,6,7,8,13,13a-hexahydro isoquinolino[3,2-a]isoquinoline-2-carboxylic acid]	1.72 ± 0.13	1.86	0.97 ± 0.04 fold of control	1.10 ± 0.14 fold of control	+	–	–
COc1cc2c(cc1C(=O)N(C)C)C1Cc3ccc(OC)c(OS(=O)(=O)c4ccccc4)c3CN1CC2 (stereo not drawn) [Compound 136, 2-(N,N-dimethylcarbamoyl)-3,10-dimethoxy-5,6,7,8,13,13a-hexahydroisoquinolino[2,1-b]isoquinolin-9-yl benzenesulfonate]	0.91 ± 0.05	1.92 ± 0.32	0.48 ± 0.03 fold of control	0.62 ± 0.02 fold of control	++	+	–
COc1cc2c(cc1C(=O)NCCO)C1Cc3ccc(OC)c(OS(=O)(=O)c4ccccc4)c3CN1CC2 (stereo not drawn) [Compound 137, 2-[N-(2-hydroxyethyl)carbamoyl]-3,10-dimethoxy-5,6,7,8,13,13a-hexahydroisoquinolino[2,1-b]isoquinolin-9-yl benzenesulfonate]	1.61 ± 0.19	2.66 ± 0.04	0.45 ± 0.06 fold of control	0.34 ± 0.00 fold of control	+++	+	–
COc1cc2c(cc1OCCO)CCN1Cc3c(ccc(OC)c3OS(=O)(=O)c3ccccc3)CC21 (stereo not drawn) [Compound 138, 3-(2-Hydroxyethoxy)-2,10-dimethoxy-5,6,7,8,13,13a-hexahydroisoquinolino[2,1-b]isoquinolin-9-yl benzenesulfonate]	1.6 ± 0.29	2.45 ± 0.2	0.63 ± 0.14 fold of control	0.35 ± 0.02 fold of control	+++	+	–
COc1cc2c(cc1OC)C1C(C)c3ccc(OC)c(OS(=O)(=O)c4ccccc4)c3CN1CC2 (stereo not drawn) [Compound 139, 2,3,10-Trimethoxy-13-methyl-5,6,7,8,13,13a-hexahydro isoquinolino[2,1-b]isoquinolin-9-yl benzenesulfonate]	11.5 ± 1.29	3.02 ± 0.34	0.46 ± 0.04 fold of control	0.27 ± 0.02 fold of control	++/++	++/++	–
COc1ccc2c(c1)CCN1Cc3c(ccc(OC)c3OS(=O)(=O)c3ccccc3)C(C)C21 (stereo not drawn) [Compound 140, 3,10-Dimethoxy-13-methyl-5,6,7,8,13,13a-hexahydro isoquinolino[2,1-b]isoquinolin-9-yl benzenesulfonate]	6.65 ± 0.68	8.6 ± 2	0.43 ± 0.08 fold of control	0.51 ± 0.08 fold of control	++/++	++/++	–
COc1ccc2c(c1OS(=O)(=O)c1ccccc1)CN1CCc3cc(OCCO)ccc3C1C2 (stereo not drawn) [Compound 142, 3-(2-Hydroxyethoxy)-10-methoxy-5,6,7,8,13,13a-hexahydroisoquinolino[2,1-b]isoquinolin-9-yl benzenesulfonate]	2.64 ± 0.01	13 ± 1.96	0.62 ± 0.07 fold of control	0.52 ± 0.02 fold of control	++	+	–
COc1cc2c(cc1OCCO)C1Cc3ccc(OC)c(OS(=O)(=O)c4ccccc4)c3CN1CC2 (stereo not drawn) [Compound 143, 2-(2-hydroxyethoxy)-3,10-dimethoxy-5,6,7,8,13,13a-hexahydroisoquinolino[2,1-b]isoquinolin-9-yl benzenesulfonate]	1.87 ± 0.03	15 ± 1.68	1.09 ± 0.09 fold of control	0.48 ± 0.06 fold of control	++	–	–
